Measured values taken from ChEMBL document CHEMBL4190335, “Design of KDM4 Inhibitors with Antiproliferative Effects in Cancer Models” (ACS Med Chem Lett, 2017).
Blank lines part the entries; values can stand above or below the molecule they belong to. The source made the active and inactive calls. The rule behind the calls is not given here.

How the values were obtained:
KYSE-150 cell line = experiment: cells; conditions: Homo sapiens, KYSE-150, 168 h
Description: Antiproliferative activity against human KYSE-150 cells after 168 hrs by 5-bromo-2'-deoxyuridine thymidine incorporation assay

[1] = biological target: T1, Lysine-specific demethylase 4C (Homo sapiens, UniProt Q9H3R0); experiment: Inhibition of KDM4C (unknown origin) using biotinylated H3K9me3 peptide and alpha-ketoglutarate as substrate pretreated for 1 hr followed by substrate addition measured after 20 mins in presence of 0.2 mg/ml BSA by LANCE TR-FRET assay
T1 sequence (Q9H3R0 whole entry): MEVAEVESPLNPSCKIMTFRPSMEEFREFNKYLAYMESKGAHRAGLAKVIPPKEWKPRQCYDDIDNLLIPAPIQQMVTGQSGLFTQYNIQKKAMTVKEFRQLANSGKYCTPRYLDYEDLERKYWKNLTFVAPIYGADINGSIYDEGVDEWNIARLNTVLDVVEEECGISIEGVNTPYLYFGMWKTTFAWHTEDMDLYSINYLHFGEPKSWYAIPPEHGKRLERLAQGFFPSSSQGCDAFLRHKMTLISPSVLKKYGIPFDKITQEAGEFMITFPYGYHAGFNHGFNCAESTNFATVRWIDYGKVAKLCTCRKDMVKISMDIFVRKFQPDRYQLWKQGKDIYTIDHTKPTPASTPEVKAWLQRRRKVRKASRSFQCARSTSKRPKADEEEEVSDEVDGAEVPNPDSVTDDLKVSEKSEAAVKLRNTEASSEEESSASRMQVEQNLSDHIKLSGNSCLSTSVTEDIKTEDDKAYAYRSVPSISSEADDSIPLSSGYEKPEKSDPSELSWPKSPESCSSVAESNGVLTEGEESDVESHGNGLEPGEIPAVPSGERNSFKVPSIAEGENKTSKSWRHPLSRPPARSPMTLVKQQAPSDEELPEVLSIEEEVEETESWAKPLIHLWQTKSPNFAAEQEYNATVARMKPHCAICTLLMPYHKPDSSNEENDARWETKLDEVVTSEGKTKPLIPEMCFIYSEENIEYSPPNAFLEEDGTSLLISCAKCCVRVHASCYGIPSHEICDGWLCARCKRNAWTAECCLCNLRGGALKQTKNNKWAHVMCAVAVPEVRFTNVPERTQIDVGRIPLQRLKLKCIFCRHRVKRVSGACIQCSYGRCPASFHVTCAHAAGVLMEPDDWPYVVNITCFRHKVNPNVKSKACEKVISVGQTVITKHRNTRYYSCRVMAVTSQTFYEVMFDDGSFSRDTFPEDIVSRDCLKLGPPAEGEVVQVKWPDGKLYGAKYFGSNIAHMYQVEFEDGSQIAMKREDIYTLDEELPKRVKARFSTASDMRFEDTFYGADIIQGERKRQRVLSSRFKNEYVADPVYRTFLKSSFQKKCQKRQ

IMR-90 = experiment: Cytotoxicity against human IMR90 cells; format: cell-based
[2] = biological target: Lysine-specific histone demethylase 1A (Homo sapiens) (UniProt O60341); experiment: Inhibition of KDM1 in human KYSE-150 cells assessed as increase in H3K4me2 level at higher concentration after 24 hrs by UHPLC-MS/MS analysis; format: cell-based
[3] = Permeability of the compound by PAMPA; format: ADME; conditions: read-out: permeability
[4] = biological target: T2, Lysine-specific demethylase 4C (Homo sapiens) (UniProt Q9H3R0); experiment: Inhibition of full-length KDM4C (unknown origin) expressed in human KYSE-150 cells assessed as increase in H3K36me3 level after 24 hrs by HTRF assay
T2 sequence (whole entry): T1 sequence (Q9H3R0 whole entry)

[5] = biological target: T1, Lysine-specific demethylase 4C; experiment: as above
Homo sapiens [6] = organism: Homo sapiens; experiment: Inhibition of KDM6 in human KYSE-150 cells assessed as increase in H3K27me3 level at higher concentration after 24 to 96 hrs by UHPLC-MS/MS analysis; format: cell-based
Homo sapiens [7] = organism: Homo sapiens; experiment: Inhibition of KDM5 in human KYSE-150 cells assessed as increase in H3K4me3 level at higher concentration after 24 hrs by UHPLC-MS/MS analysis; format: cell-based
[8] = Oral bioavailability in CD-1 mouse at 10 mg/kg; format: ADME, organism-based; conditions: in vivo
[9] = Systemic clearance in CD-1 mouse at 5 mg/kg, iv; format: ADME, organism-based; conditions: in vivo
[10] = AUC in CD-1 mouse at 10 mg/kg, po; format: ADME, organism-based; conditions: in vivo
[11] = biological target: Histone lysine demethylase PHF8 (Homo sapiens, UniProt Q9UPP1); experiment: Inhibition of PHF8 (unknown origin) using biotinylated H3K9me1 peptide and alpha-ketoglutarate as substrate measured after 20 mins by LANCE TR-FRET assay
Histone lysine demethylase PHF8, sequence (Q9UPP1 whole entry): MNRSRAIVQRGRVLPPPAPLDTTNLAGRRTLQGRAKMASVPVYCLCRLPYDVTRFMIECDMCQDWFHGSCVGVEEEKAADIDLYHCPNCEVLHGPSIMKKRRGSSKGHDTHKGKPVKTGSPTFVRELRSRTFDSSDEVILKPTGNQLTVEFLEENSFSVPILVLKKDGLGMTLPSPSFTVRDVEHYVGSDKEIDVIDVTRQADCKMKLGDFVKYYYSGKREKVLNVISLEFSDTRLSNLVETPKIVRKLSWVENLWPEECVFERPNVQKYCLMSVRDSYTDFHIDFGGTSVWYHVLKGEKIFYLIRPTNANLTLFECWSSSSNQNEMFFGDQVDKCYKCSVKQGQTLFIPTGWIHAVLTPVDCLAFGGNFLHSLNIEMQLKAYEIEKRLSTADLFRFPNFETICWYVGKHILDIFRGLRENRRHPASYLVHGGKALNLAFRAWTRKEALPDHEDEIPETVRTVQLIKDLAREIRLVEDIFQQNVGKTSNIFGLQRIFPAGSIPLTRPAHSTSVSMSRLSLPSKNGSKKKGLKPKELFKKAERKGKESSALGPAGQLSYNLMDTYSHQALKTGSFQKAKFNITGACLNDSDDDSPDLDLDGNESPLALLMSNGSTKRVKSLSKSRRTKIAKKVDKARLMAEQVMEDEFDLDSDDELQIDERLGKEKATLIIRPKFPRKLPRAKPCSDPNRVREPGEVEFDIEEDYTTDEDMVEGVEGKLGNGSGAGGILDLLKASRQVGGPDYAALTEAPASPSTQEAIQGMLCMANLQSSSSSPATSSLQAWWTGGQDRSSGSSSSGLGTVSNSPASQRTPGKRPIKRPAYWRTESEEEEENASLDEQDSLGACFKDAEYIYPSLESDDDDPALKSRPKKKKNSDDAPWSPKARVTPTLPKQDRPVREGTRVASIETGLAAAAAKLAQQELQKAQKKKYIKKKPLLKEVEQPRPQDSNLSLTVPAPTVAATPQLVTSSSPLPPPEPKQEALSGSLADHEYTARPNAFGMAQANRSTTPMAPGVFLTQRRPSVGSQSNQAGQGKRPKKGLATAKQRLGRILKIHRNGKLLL

[12] = biological target: T3, Lysine-specific demethylase 3A (Homo sapiens, UniProt Q9Y4C1); experiment: Inhibition of KDM3A (unknown origin) using biotinylated H3K9me1 peptide and alpha-ketoglutarate as substrate measured after 20 mins by LANCE TR-FRET assay
T3 sequence (Q9Y4C1 whole entry): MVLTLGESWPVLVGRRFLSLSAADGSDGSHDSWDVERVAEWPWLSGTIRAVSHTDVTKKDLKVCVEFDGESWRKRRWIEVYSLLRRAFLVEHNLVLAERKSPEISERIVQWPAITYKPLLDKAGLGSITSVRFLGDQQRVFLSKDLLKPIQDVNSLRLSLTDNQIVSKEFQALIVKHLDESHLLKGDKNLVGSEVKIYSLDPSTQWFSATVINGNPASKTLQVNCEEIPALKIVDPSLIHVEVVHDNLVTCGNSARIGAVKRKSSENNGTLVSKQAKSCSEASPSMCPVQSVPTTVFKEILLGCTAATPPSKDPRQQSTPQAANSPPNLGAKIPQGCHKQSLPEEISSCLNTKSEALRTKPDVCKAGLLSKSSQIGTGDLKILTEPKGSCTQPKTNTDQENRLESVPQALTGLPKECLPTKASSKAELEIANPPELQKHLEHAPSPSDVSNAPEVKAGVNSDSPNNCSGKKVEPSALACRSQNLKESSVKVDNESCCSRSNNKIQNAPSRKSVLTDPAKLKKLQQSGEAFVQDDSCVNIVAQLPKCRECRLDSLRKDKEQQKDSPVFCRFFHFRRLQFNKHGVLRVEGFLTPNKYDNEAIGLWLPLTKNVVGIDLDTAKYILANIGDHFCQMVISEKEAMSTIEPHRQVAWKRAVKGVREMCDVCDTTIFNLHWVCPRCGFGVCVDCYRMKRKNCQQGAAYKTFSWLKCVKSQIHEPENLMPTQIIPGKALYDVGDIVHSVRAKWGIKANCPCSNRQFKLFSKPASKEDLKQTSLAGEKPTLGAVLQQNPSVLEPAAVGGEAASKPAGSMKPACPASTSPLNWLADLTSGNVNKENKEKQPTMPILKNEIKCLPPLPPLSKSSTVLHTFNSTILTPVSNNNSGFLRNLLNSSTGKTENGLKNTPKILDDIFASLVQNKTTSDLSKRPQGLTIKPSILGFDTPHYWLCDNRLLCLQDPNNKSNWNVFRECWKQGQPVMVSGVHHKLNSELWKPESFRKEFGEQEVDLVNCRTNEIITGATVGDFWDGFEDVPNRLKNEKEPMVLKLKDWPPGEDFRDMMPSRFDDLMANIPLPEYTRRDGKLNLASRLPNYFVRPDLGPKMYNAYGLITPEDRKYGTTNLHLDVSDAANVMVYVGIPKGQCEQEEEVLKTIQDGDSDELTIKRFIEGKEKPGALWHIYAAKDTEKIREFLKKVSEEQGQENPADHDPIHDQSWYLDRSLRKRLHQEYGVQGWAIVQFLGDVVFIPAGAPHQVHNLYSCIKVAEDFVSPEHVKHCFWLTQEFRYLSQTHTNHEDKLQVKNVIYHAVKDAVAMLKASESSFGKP

[13] = biological target: T1, Lysine-specific demethylase 4C; experiment: Inhibition of KDM4C (unknown origin) using biotinylated H3K9me3 peptide and alpha-ketoglutarate as substrate pretreated for 1 hr followed by substrate addition measured after 20 mins in presence of 0.02 mg/ml BSA by LANCE TR-FRET assay
[14] = biological target: T4, Lysine-specific demethylase 2B (Homo sapiens, UniProt Q8NHM5); experiment: Inhibition of KDM2B (unknown origin) using biotinylated H3K36me2 peptide and alpha-ketoglutarate as substrate pretreated for 1 hr followed by substrate addition measured after 20 mins by LANCE TR-FRET assay
T4 sequence (Q8NHM5 whole entry): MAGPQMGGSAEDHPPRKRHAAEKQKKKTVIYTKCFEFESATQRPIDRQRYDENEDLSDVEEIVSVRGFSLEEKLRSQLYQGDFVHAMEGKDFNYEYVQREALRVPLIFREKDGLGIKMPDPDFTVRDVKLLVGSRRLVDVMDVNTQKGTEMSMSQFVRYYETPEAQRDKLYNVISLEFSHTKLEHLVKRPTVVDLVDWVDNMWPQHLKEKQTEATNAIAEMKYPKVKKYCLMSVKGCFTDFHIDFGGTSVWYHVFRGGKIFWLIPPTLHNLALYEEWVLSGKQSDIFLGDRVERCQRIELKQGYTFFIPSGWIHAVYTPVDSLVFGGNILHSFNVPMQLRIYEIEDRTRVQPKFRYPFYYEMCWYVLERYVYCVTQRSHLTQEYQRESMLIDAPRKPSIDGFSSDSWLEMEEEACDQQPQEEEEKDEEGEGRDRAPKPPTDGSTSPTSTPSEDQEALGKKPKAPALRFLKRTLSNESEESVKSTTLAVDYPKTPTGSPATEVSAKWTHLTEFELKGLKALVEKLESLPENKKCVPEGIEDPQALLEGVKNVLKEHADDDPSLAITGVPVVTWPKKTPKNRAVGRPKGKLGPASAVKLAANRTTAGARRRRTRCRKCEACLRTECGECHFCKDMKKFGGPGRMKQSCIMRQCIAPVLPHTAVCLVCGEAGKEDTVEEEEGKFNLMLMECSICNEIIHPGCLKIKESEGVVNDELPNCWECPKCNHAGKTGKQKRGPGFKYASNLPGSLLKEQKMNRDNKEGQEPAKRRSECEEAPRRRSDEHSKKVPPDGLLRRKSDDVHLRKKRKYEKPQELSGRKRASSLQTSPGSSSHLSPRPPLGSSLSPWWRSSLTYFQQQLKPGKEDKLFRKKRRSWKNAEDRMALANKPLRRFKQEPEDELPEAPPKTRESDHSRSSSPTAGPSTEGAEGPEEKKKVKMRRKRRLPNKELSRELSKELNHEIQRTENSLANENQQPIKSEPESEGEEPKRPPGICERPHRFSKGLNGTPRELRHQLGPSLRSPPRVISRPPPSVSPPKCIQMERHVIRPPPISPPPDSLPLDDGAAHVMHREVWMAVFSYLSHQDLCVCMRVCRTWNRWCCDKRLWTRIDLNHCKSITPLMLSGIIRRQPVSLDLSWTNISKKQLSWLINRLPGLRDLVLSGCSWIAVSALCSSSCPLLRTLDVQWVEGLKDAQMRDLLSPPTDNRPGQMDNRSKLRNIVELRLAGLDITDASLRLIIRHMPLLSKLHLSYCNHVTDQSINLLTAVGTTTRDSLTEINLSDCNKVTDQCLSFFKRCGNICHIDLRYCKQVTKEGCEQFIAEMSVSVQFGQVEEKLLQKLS

[15] = biological target: Lysine-specific demethylase 3B (Homo sapiens, UniProt Q7LBC6); experiment: Inhibition of KDM3B (unknown origin) using biotinylated H3K9me1 peptide and alpha-ketoglutarate as substrate measured after 20 mins by LANCE TR-FRET assay
Lysine-specific demethylase 3B, sequence (Q7LBC6 whole entry): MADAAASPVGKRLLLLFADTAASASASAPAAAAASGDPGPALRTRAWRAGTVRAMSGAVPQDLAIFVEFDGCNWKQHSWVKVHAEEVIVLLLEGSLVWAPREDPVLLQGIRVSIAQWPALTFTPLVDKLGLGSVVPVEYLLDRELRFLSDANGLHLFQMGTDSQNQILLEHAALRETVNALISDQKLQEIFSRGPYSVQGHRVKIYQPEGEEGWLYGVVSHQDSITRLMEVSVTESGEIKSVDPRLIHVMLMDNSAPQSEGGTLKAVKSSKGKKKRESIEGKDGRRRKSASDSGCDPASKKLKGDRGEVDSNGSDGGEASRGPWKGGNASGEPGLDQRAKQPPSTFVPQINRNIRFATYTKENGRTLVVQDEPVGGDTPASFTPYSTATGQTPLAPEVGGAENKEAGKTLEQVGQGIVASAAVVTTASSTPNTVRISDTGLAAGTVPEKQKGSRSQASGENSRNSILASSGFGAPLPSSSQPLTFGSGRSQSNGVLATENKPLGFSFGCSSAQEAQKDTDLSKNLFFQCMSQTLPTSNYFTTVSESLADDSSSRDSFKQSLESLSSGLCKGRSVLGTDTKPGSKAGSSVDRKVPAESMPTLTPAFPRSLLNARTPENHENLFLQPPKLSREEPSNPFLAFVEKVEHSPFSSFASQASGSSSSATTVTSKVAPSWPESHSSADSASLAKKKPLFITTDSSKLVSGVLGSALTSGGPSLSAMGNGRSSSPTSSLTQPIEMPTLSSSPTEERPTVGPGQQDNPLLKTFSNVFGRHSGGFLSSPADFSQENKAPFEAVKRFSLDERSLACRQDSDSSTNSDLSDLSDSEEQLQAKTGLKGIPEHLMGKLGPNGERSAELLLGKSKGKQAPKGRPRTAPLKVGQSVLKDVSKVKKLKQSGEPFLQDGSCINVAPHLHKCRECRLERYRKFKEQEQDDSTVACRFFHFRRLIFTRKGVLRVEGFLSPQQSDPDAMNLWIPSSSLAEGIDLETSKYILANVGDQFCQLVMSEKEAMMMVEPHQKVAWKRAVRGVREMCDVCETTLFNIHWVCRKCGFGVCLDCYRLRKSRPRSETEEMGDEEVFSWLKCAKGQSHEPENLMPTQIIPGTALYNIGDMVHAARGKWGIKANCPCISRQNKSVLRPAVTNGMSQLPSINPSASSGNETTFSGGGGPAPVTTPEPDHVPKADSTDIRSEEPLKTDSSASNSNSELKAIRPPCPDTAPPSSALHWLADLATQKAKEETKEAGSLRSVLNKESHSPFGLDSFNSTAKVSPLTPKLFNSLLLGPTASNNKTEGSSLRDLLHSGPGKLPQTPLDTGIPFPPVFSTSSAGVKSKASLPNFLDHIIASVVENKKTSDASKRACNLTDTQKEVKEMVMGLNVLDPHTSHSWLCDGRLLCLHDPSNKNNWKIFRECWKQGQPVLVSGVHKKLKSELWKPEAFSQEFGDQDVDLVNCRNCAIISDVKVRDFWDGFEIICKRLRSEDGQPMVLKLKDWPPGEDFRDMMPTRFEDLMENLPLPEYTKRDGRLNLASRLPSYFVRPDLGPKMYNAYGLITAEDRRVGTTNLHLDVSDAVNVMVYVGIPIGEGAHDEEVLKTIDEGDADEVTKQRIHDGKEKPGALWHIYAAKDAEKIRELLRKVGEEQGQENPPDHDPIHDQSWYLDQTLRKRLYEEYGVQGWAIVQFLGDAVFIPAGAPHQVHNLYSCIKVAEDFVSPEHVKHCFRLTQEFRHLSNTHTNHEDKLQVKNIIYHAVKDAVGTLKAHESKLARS

[16] = Volume of distribution in CD-1 mouse at 5 mg/kg, iv; format: ADME, organism-based; conditions: in vivo
[17] = biological target: Lysine-specific demethylase 6B (Homo sapiens, UniProt O15054); experiment: Inhibition of KDM6B (unknown origin) using biotinylated H3K27me3 peptide and alpha-ketoglutarate as substrate pretreated for 1 hr followed by substrate addition measured after 20 mins by LANCE TR-FRET assay
Lysine-specific demethylase 6B, sequence (O15054 whole entry): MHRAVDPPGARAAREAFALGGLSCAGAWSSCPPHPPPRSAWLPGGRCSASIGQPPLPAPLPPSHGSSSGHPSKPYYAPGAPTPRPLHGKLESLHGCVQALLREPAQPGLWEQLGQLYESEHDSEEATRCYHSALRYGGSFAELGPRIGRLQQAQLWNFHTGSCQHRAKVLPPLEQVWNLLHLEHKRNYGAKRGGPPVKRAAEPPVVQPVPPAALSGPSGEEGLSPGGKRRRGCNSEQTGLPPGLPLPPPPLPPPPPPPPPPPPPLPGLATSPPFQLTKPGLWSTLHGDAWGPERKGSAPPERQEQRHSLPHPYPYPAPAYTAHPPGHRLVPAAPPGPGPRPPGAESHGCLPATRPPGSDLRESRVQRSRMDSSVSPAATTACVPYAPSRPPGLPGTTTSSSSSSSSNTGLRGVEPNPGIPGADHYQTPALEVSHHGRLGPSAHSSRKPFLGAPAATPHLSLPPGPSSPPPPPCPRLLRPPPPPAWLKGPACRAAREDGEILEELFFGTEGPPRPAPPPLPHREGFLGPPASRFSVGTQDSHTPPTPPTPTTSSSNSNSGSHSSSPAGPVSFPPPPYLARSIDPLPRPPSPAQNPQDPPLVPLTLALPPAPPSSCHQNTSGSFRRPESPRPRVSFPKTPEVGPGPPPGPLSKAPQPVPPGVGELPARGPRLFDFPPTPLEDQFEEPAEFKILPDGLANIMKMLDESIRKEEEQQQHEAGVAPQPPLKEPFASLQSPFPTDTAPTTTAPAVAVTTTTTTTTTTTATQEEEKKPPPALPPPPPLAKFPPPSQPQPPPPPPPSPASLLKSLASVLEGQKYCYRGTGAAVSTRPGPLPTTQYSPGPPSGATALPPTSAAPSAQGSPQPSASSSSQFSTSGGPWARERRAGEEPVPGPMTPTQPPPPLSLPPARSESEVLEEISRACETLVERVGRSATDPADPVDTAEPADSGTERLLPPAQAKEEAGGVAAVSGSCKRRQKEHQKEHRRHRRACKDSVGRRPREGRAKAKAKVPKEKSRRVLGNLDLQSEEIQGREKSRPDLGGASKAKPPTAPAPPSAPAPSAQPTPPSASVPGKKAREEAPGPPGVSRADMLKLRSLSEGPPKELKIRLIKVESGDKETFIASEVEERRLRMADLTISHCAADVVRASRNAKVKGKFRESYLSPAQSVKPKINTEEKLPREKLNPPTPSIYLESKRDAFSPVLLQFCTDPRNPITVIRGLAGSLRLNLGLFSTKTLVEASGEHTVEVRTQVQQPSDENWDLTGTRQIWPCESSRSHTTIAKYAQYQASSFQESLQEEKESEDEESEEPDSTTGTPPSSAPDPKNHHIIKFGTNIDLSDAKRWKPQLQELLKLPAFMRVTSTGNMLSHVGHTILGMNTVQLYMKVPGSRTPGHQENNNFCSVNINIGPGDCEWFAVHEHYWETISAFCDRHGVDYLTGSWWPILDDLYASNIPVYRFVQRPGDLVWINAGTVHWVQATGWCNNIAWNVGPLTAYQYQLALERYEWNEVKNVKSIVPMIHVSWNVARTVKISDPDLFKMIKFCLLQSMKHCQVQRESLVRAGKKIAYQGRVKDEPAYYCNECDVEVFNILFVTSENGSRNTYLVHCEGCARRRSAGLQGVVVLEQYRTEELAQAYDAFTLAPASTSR

SMILES: COc1ccc2c(c1)CCC[C@H]2CNc1cnccc1C(=O)O
EC50 (IMR-90): > 30 µM
inhibition [2]: Below limit of detection
Papp [3]: 18.4 nm/s
inhibition [4]: Dose-dependent effect
EC50 [5]: 0.56 µM
EC50 (KYSE-150 cell line): 0.83 µM
inhibition (Homo sapiens [6]): Active
inhibition (Homo sapiens [7]): Below limit of detection
IC50 [1]: 0.006 µM

SMILES: O=C(O)c1ccncc1NC[C@@H]1CCCc2cc(Sc3ccccc3)ccc21
EC50 [5]: 0.019 µM
IC50 [1]: 0.048 µM

SMILES: CN(c1ccccc1)c1ccc2c(c1)CCC[C@H]2CNc1cnccc1C(=O)O
bioavailability [8]: 30%
clearance [9]: 0.414 L/h/kg
AUC [10]: 10.4 µg·h/mL
IC50 [11]: > 4 µM
IC50 [12]: > 4 µM
IC50 [13]: 0.009 µM
IC50 [14]: > 4 µM
IC50 [15]: > 4 µM
Vd [16]: 0.675 L/kg
IC50 [17]: > 4 µM
EC50 [5]: 0.0013 µM

Results, then the molecule that gave them:

EC50 (KYSE-150 cell line): 4 µM
IC50 [1]: 0.008 µM
SMILES: O=C(O)c1ccncc1NC[C@@H]1CCCc2ccccc21

inhibition [4]: inactive
EC50 (KYSE-150 cell line): > 100 µM
IC50 [1]: > 2 µM
SMILES: O=C(O)c1ccncc1NC[C@H]1CCCc2ccccc21

EC50 (KYSE-150 cell line): 6 µM
IC50 [1]: 0.012 µM
SMILES: O=C(O)c1ccncc1NCC1CCCc2ccccc21 (centres undefined)
